Measured values taken from US10294202B2, “Pyrrolidinones as herbicides” (FMC Corporation, priority 2013, dated 2019).

What was measured:
[1] = tested on: surinam grass; test: Test E preemergence herbicide test; type: in vivo, Brachiaria decumbens; design: key: 0 = no effect, 100 = complete control
From the text: (§1) Seeds of plant species selected from corn (Zea mays), soybean (Glycine max), velvetleaf (Abutilon theophrasti), lambsquarters (Chenopodium album), wild poinsettia (Euphorbia heterophylla), pigweed, palmer (palmer pigweed, Amaranthus palmeri), waterhemp (common waterhemp, Amaranthus rudis), surinam grass (Brachiaria decumbens), crabgrass, large (large crabgrass, Digitaria sanguinalis), crabgrass, Brazil (Brazilian crabgrass, Digitaria horizontalis), panicum, fall (fall panicum, Panicum dichotomiflorum), foxtail, giant (giant foxtail, Setaria faberii), foxtail, green (green foxtail, Setaria viridis), goosegrass (Eleusine indica), johnsongrass (Sorghum halepense), ragweed (common ragweed, Ambrosia elatior), barnyardgrass (Echinochloa crus-galli), sandbur (southern sandbur, Cenchrus echinatus), arrowleaf […] rhombifolia), ryegrass, Italian (Italian ryegrass, Lolium multiflorum), dayflower, VA (Virginia dayflower, Commelina virginica), field bindweed (Convolvulus arvensis), morningglory (Ipomoea coccinea), nightshade (eastern black nightshade, Solanum ptycanthum), kochia (Kochia scoparia), nutsedge, yellow (yellow nutsedge, Cyperus esculentus), cocklebur (common cocklebur, Xanthium strumarium), smartweed (ladysthumb smartweed, Polygonum Persicaria) and beggarticks (hairy beggarticks, Bidens pilosa), were planted into a silt loam soil and treated preemergence with test chemicals formulated in a non-phytotoxic solvent mixture which included a surfactant. Treated plants and controls were maintained in a greenhouse for 21 days, after which time all species were compared to controls and visually evaluated. Plant response ratings, summarized in Table E, are based on a scale of 0 to 100 where 0 is no effect and 100 is complete control. A dash (-) response means no test result.

[2] = tested on: windgrass; test: Test D pre-/postemergence herbicide test; type: in vivo, Apera spica-venti; conditions: for Plant response rating, Windgrass: Preemergence, scale 0 to 100 (0 no effect, 100 complete control); for Plant response rating: Postemergence, Windgrass, scale 0 to 100
Outline: (§2)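 Greenhouse pre- and postemergence screen with surfactant-containing non-phytotoxic solvent formulations. Silt loam soil served for preemergence application, and peat/vermiculite medium for postemergence application at 2–18 cm height. Visual 0–100 control ratings versus controls were recorded 7 to 21 days later.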

[3] = tested on: pigweed, palmer; test: Test E preemergence herbicide test; type: in vivo, Amaranthus palmeri; design: key: 0 = no effect, 100 = complete control
From the text: as §1

[4] = tested on: mustard, wild; test: Test D pre-/postemergence herbicide test; type: in vivo, Sinapis arvensis; conditions: for Plant response rating, Mustard, Wild: scale 0 to 100 (0 no effect, 100 complete control); for Plant response rating: Mustard, Wild, scale 0 to 100
Outline: as §2

[5] = tested on: cupgrass, woolly; test: Test C pre-/postemergence herbicide test; type: in vivo, Eriochloa villosa; conditions: Postemergence
Outline: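 Plants grown and held in a greenhouse for 13 to 15 days post-spray, then rated 0–100 by visual comparison with controls. Pre treatments targeted seeds in loam and sand; post treatments targeted 1- to 4-leaf plants in peat-based potting medium.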

[6] = tested on: bromegrass, downy; test: Test C pre-/postemergence herbicide test; type: in vivo, Bromus tectorum; conditions: Postemergence
From the text: Seeds of plant species selected from blackgrass (Alopecurus myosuroides), ryegrass, Italian (Italian ryegrass, Lolium multiflorum), wheat (winter wheat, Triticum aestivum), galium (catchweed bedstraw, Galium aparine), corn (Zea mays), crabgrass, large (large crabgrass, Digitaria sanguinalis), foxtail, giant (giant foxtail, Setaria faberii), johnsongrass (Sorghum halepense), lambsquarters (Chenopodium album), morningglory (Ipomoea coccinea), nutsedge, yellow (yellow nutsedge, Cyperus esculentus), pigweed (Amaranthus retroflexus), ragweed (common ragweed, Ambrosia elatior), soybean (Glycine max), barnyardgrass (Echinochloa crus-galli), oilseed rape (Brassica napus), waterhemp (common waterhemp, Amaranthus rudis), kochia (Kochia scoparia), oat, wild (wild oat, Avena fatua), surinam grass (Brachiaria decumbens), foxtail, green (green foxtail, Setaria viridis), goosegrass (Eleusine indica), bromegrass, downy (downy bromegrass, Bromus tectorum), nightshade (eastern black nightshade, Solanum ptycanthum), cocklebur (common cocklebur, Xanthium strumarium), cupgrass, woolly (woolly cupgrass, Eriochloa villosa), bermudagrass (Cynodon dactylon), sunflower, (common oilseed sunflower, Helianthus annuus), Russian thistle (Salsola kali) and velvetleaf (Abutilon theophrasti) were planted into a blend of loam soil and sand and treated preemergence with test chemicals formulated in a non-phytotoxic solvent mixture which included a surfactant. At the same time, plants selected from these crop and weed species and also barley (winter barley, Hordeum vulgare), […]), chickweed (common chickweed, Stellaria media), deadnettle (henbit deadnettle, Lamium amplexicaule), and canarygrass (littleseed canarygrass, Phalaris minor) were planted in pots containing Redi-Earth® planting medium (Scotts Company, 14111 Scottslawn Road, Marysville, Ohio 43041) comprising spaghnum peat moss, vermiculite, wetting agent and starter nutrients and treated with postemergence applications of test chemicals formulated in the same manner. Plants ranged in height from 2 to 18 cm (1- to 4-leaf stage) for postemergence treatments. Treated plants and controls were maintained in a greenhouse for 13 to 15 days, after which time all species were compared to controls and visually evaluated. Plant response ratings, summarized in Table C, are based on a scale of 0 to 100 where 0 is no effect and 100 is complete control. A dash (-) response means no test result.

[7] = 31 g ai/ha, scale 0 (no effect) to 100 (complete control)
[8] = 62 g ai/ha, scale 0 to 100 (0 no effect, 100 complete control)
[9] = 125 g ai/ha, scale 0 to 100 (0 no effect, 100 complete control)
[10] = 250 g ai/ha, scale 0 to 100 (0 no effect, 100 complete control)

Compound | Plant response rating, Surinam Grass ([1]; 31 g ai/ha) | Plant response rating, Surinam Grass ([1]; 62 g ai/ha) | Plant response rating, Surinam Grass ([1]; 125 g ai/ha) | Plant response rating, Surinam Grass ([1]; 250 g ai/ha) | Plant response rating, Windgrass ([2]; 62 g ai/ha) | Plant response rating, Windgrass ([2]; 125 g ai/ha) | Plant response rating, Windgrass ([2]; 31 g ai/ha) | Plant response rating, Windgrass ([2]; 250 g ai/ha) | Plant response rating, Pigweed, Palmer ([3]; 31 g ai/ha) | Plant response rating, Pigweed, Palmer ([3]; 62 g ai/ha) | Plant response rating, Pigweed, Palmer ([3]; 125 g ai/ha) | Plant response rating, Pigweed, Palmer ([3]; 250 g ai/ha) | Plant response rating, Mustard, Wild ([4]; Preemergence, 62 g ai/ha) | Plant response rating, Mustard, Wild ([4]; Preemergence, 31 g ai/ha) | Plant response rating ([4]; Preemergence, 250 g ai/ha) | Plant response rating ([2]; 31 g ai/ha) | Plant response rating ([2]; 62 g ai/ha) | Plant response rating ([2]; 125 g ai/ha) | Plant response rating ([4]; Postemergence, 31 g ai/ha) | Plant response rating ([4]; Postemergence, 125 g ai/ha) | further results
O=C1NC[C@H](c2cccc(C(F)(F)F)c2)[C@H]1C(=O)Nc1cccc(F)c1F [Compound 206] | 50 | 95 | 85 | 98 | 75 | 90 | 75 | 90 | 0 | 0 | 0 | 0 | 0 | 0 | 75 |  |  |  |  |  | Plant response rating, Mustard, Wild ([4]; Preemergence, 125 g ai/ha): 0
O=C1NCC(c2ccc(C(F)(F)F)cc2)C1C(=O)Nc1cccc(F)c1F (racemic) [Compound 202] | 20 |  | 65 | 95 | 85 | 90 | 65 | 90 | 0 | 70 | 85 | 80 | 0 | 0 | 75 | 0 | 10 | 35 | 85 | 80 | Plant response rating ([2]; 250 g ai/ha): 45; Plant response rating ([4]; Postemergence, 62 g ai/ha): 80; Plant response rating ([4]; Postemergence, 250 g ai/ha): 85; Plant response rating ([4]; Preemergence, 125 g ai/ha): 20
O=C1NCC(c2cc(F)c(F)cc2F)C1C(=O)Nc1cccc(F)c1F (centres unmarked) [Compound 50] |  |  |  |  | 5 | 0 | 0 |  |  |  |  |  | 0 |  |  | 0 | 0 | 0 | 60 | 40 | Plant response rating, Cupgrass, Woolly [5, 7]: 0; Plant response rating, Cupgrass, Woolly [5, 8]: 0; Plant response rating, Cupgrass, Woolly [5, 9]: 0; Plant response rating, Cupgrass, Woolly [5, 10]: 10; Plant response rating, Bromegrass, Downy [6, 7]: 0; Plant response rating, Bromegrass, Downy [6, 8]: 0; Plant response rating, Bromegrass, Downy [6, 9]: 0; Plant response rating, Bromegrass, Downy [6, 10]: 0; Plant response rating ([2]; 16 g ai/ha): 0; Plant response rating, Windgrass ([2]; 16 g ai/ha): 0; Plant response rating ([4]; Postemergence, 16 g ai/ha): 40; Plant response rating, Mustard, Wild ([4]; Preemergence, 16 g ai/ha): 50; Plant response rating ([4]; Preemergence, 125 g ai/ha): 80
O=C1NCC(c2ccc(C(F)(F)F)cc2)C1C(=O)Nc1cccc(F)c1F (centres unmarked) [Compound 80, N-(2,3-difluorophenyl)-2-oxo-4-[4-(trifluoromethyl)phenyl]-3-pyrrolidinecarboxamide] | 40 | 50 | 60 | 70 | 20 | 75 | 5 | 90 | 0 |  | 65 | 90 | 25 | 0 | 70 | 0 | 10 | 10 | 70 | 85 | Plant response rating, Surinam Grass ([1]; 16 g ai/ha): 30; Plant response rating ([2]; 250 g ai/ha): 25; Plant response rating, Pigweed, Palmer ([3]; 16 g ai/ha): 0; Plant response rating ([4]; Postemergence, 62 g ai/ha): 80; Plant response rating ([4]; Postemergence, 250 g ai/ha): 85; Plant response rating ([4]; Preemergence, 125 g ai/ha): 65
O=C1NCC(c2ccc(OC(F)F)cc2)C1C(=O)Nc1cccc(F)c1F (racemic) [Compound 350] | 0 | 0 | 50 | 65 |  |  |  |  | 0 | 0 | 35 | 35 |  |  |  |  |  |  |  |  | 
O=C1NC[C@H](c2cccc(C(F)(F)F)c2)[C@H]1C(=O)Nc1ccccc1F [Compound 204, (3R,4S)—N-(2-fluorophenyl)-2-oxo-4-[3-(trifluoromethyl)phenyl]-3-pyrrolidinecarboxamide] | 35 | 60 | 98 | 95 | 65 | 85 | 50 | 95 | 0 | 0 | 0 | 0 | 20 | 0 | 20 |  |  |  |  |  | Plant response rating, Mustard, Wild ([4]; Preemergence, 125 g ai/ha): 20
